In patent publication US12116357B2, “Heteroaryl-triazole and heteroaryl-tetrazole compounds as pesticides” (Bayer Aktiengesellschaft, priority 2018, dated 2024):

Experiments:
Format in all cases: in vivo
Phaedon cochleariae = Phaedon cochleariae spray test; details: 168 h, after 7 days
Procedure: (§1) • Solvent: 78.0 parts by weight of acetone • 1.5 parts by weight of dimethylformamide • Emulsifier: alkylarylpolyglycol ether
(§2) To produce a suitable preparation of active compound, 1 part by weight of active compound is mixed with the stated amount of solvents and is diluted with water, containing an emulsifier concentration of 1000 ppm, to the desired concentration. Further test concentrations are prepared by dilution with emulsifier containing water.
Chinese cabbage (Brassica pekinensis) leaf disks are sprayed with a preparation of the active ingredient of the desired concentration. Once dry, the leaf disks are infested with mustard beetle larvae (Phaedon cochleariae).
After 7 days mortality in % is determined. 100% means all beetle larvae have been killed and 0% means none of the beetle larvae have been killed.

Myzus persicae [1] = experiment: Myzus persicae oral test; details: 120 h
Procedure: • Solvent: 100 parts by weight acetone
To produce a suitable preparation of active compound, 1 part by weight of active compound is mixed with the stated amount of solvent, and the concentrate is diluted with water to the desired concentration. 50 μl compound solution is filled in microtiter plates and 150 μl IPL41 insect medium (33%+15% sugar) is added to obtain a total volume of 200 μl per well. Afterwards the plates are sealed with parafilm through which a mixed population of the green peach aphid (Myzus persicae) can suck on the compound preparation.
(§3) After 5 days mortality in % is determined. 100% means all aphids have been killed and 0% means none of the aphids have been killed.

Rhipicephalus sanguineus = Rhipicephalus sanguineus in-vitro contact test, adult brown dog ticks
Procedure: (§4) 9 mg compound is solved in 1 ml acetone and diluted with acetone to the desired concentration. 250 μl of the test solution is filled in 25 ml glass test tubes and homogeneously distributed on the inner walls by rotation and tilting on a shaking device (2 h at 30 rpm). With a compound concentration of 900 ppm, an inner surface of 44.7 cm^2 and a homogeneous distribution, a dose of 5 μg/cm^2 is achieved.
(§5) After the solvent has evaporated, each test tube is filled with 5-10 adult brown dog ticks (Rhipicephalus sanguineus), closed with a perforated lid and incubated in a lying position at room temperature and relative humidity. After 48 hours efficacy is determined. The ticks are patted on the ground of the tubes and are incubated on a heating plate at 45-50° C. for at most 5 minutes. Immotile or uncoordinated moving ticks, which are not able to escape the heat by climbing upwards, are marked as dead or moribund.
An efficacy of 100% means all ticks are dead or moribund; 0% means no ticks are dead or moribund.

Ctenocephalides felis [2] = experiment: Ctenocephalides felis in-vitro contact test, adult cat flea; details: 5 μg/cm^2, after 48 hours, read-out: efficacy (fleas dead or moribund)
Procedure: as §4
as §5, with “cat fleas (Ctenocephalides felis),” for “brown dog ticks (Rhipicephalus sanguineus),”, “fleas” for “ticks”, “fleas,” for “ticks,”
An efficacy of 100% means all fleas are dead or moribund; 0% means no fleas are dead or moribund.

Ctenocephalides felis [3] = experiment: Ctenocephalides felis oral test; details: 48 h, 100 ppm in cattle blood, after 2 days
Procedure: (§6) • Solvent: dimethyl sulfoxide
To produce a suitable preparation of active compound, 10 mg of active compound are dissolved in 0.5 ml solvent, and the concentrate is diluted with cattle blood to the desired concentration.
Approximately 20 adult unfed cat fleas (Ctenocephalides felis) are placed in flea chambers. The blood chamber, sealed with parafilm on the bottom, are filled with cattle blood supplied with compound solution and placed on the gauze covered top of the flea chamber, so that the fleas are able to suck the blood. The blood chamber is heated to 37° C. whereas the flea chamber is kept at room temperature.
After 2 days mortality in % is determined. 100% means all the fleas have been killed; 0% means none of the fleas have been killed.

[4] = system: Tetranychus urticae (OP-Resistant); experiment: Tetranychus urticae (OP-resistant) spray test; details: 144 h, after 6 days
Procedure: (§7) • Solvent: 78.0 parts by weight acetone • 1.5 parts by weight dimethylformamide • Emulsifier: alkylarylpolyglycol ether
as §2
French bean (Phaseolus vulgaris) leaf disks infected with all instars of the two spotted spidermite (Tetranychus urticae), are sprayed with a preparation of the active ingredient of the desired concentration.
After 6 days mortality in % is determined. 100% means all spider mites have been killed and 0% means none of the spider mites have been killed.

Nilaparvata lugens = Nilaparvata lugens spray test; details: 96 h
Procedure: as §1, §2
Rice plants (Oryza sativa) are sprayed with a preparation of the active ingredient of the desired concentration and the plants are infested with the brown planthopper (Nilaparvata lugens).
After 4 days mortality in % is determined. 100% means all planthoppers have been killed and 0% means none of the planthoppers have been killed.

Spodoptera frugiperda = Spodoptera frugiperda spray test; details: 168 h
Procedure: as §7, §2
Maize (Zea mays) leaf sections are sprayed with a preparation of the active ingredient of the desired concentration. Once dry, the leaf sections are infested with fall armyworm larvae (Spodoptera frugiperda).
After 7 days mortality in % is determined. 100% means all caterpillars have been killed and 0% means none of the caterpillars have been killed.

Boophilus microplus = Boophilus microplus injection test; details: Rhipicephalus microplus, 168 h, 20 μg/animal, egg deposition after 7 days, read-out: efficacy (infertile eggs)
Procedure: as §6
To produce a suitable preparation of active compound, 10 mg of active compound are dissolved in 0.5 ml solvent, and the concentrate is diluted with solvent to the desired concentration.
Five adult engorged female ticks (Boophilus microplus) are injected with 1 μl compound solution into the abdomen. The ticks are transferred into replica plates and incubated in a climate chamber.
After 7 days egg deposition of fertile eggs is monitored. Eggs where fertility is not visible are stored in a climate chamber till hatching after about 42 days. An efficacy of 100% means all eggs are infertile; 0% means all eggs are fertile.

[5] = system: Culex quinquefasciatus strain P00; experiment: Culex quinquefasciatus test (surface treatment & contact assay); details: 24 hours after contact, read-out: efficacy (mortality); for mortality at 4 mg/m2: surface concentration 4 mg/m^2, 30 min exposure; for mortality at 20 mg/m2: surface concentration 20 mg/m^2, 30 min exposure
Procedure: (§8) • Solvent: Aceton+2000 ppm rapeseed oil methyl ester (RME)
(§9) In order to produce a sufficient, active ingredient containing solution it is necessary to solve the test compound in the solvent-mix (acetone at 2 mg/ml/RME 2000 ppm). This solution is pipetted onto a glazed tile and after evaporation of the acetone, adult mosquitoes of the species Culex quinquefasciatus strain P00 are placed onto the dried surface. The exposure time is 30 minutes.
(§10) Mortality in percent (%) is determined 24 hours after contact of the insects to the treated surface. 100% mortality means that all tested insects are dead, whereas 0% means that no insect died.

[6] = system: Aedes aegypti strain MONHEIM; experiment: Aedes aegypti test (surface treatment & contact assay); details: 24 hours after contact, read-out: efficacy (mortality); for mortality at 4 mg/m2: surface concentration 4 mg/m^2, 30 min exposure; for mortality at 20 mg/m2: surface concentration 20 mg/m^2, 30 min exposure
Procedure: as §8
as §9, with “Aedes aegypti” for “Culex quinquefasciatus”, “MONHEIM” for “P00”
as §10

[7] = system: Musca domestica strain WHO-N; experiment: Musca domestica test (surface treatment & contact assay); details: 24 hours after contact, read-out: efficacy (mortality); for mortality at 4 mg/m2: surface concentration 4 mg/m^2, 30 min exposure; for mortality at 20 mg/m2: surface concentration 20 mg/m^2, 30 min exposure
Procedure: as §8
as §9, with “flies” for “mosquitoes”, “Musca domestica” for “Culex quinquefasciatus”, “WHO-N” for “P00”
as §10

Nezara viridula = Nezara viridula spray test; details: 96 h
Procedure: as §1
as §2, with “solvent,” for “solvents”, “and the concentrate” for “and”
Barley plants (Hordeum vulgare) infested with larvae of the southern green stink bug (Nezara viridula) are sprayed with a test solution containing the desired concentration of the active ingredient.
After 4 days mortality in % is determined. 100% means all the stink bugs have been killed; 0% means none of the stink bugs have been killed.

[8] = system: Anopheles funestus strain FUMOZ-R; experiment: Anopheles funestus test (surface treatment & contact assay); details: 24 hours after contact, read-out: efficacy (mortality); for mortality at 4 mg/m2: surface concentration 4 mg/m^2, 30 min exposure; for mortality at 20 mg/m2: surface concentration 20 mg/m^2, 30 min exposure
Procedure: as §8
as §9, with “Anopheles funestus” for “Culex quinquefasciatus”, “FUMOZ-R (Hunt et al., Med. Vet. Entomol. 2005 September; 19(3): 271-275)” for “P00”
as §10

Myzus persicae [9] = experiment: Myzus persicae spray test; details: 120 h
Procedure: as §7, §2
Chinese cabbage (Brassica pekinensis) leaf disks infected with all instars of the green peach aphid (Myzus persicae), are sprayed with a preparation of the active ingredient of the desired concentration.
as §3

SMILES | mortality at 500 g/ha (Phaedon cochleariae) | mortality at 4 ppm (Myzus persicae [1]) | mortality at 20 ppm (Myzus persicae [1]) | efficacy (ticks dead or moribund) (Rhipicephalus sanguineus; 1 μg/cm^2, after 48 hours) | efficacy (ticks dead or moribund) (Rhipicephalus sanguineus; 5 μg/cm^2, after 48 hours) | pest or weed control at 5 µg/cm2 (Ctenocephalides felis [2]) | mortality at 100 ppm (Ctenocephalides felis [3]) | mortality at 500 g/ha [4] | mortality at 500 g/ha (Nilaparvata lugens) | mortality at 500 g/ha (Spodoptera frugiperda) | pest or weed control at 0.02 mg (Boophilus microplus) | mortality at 20 mg/m2 [5] | mortality at 4 mg/m2 [6] | mortality at 20 mg/m2 [6] | mortality at 4 mg/m2 [7] | mortality at 20 mg/m2 [7] | mortality at 500 g/ha (Nezara viridula) | mortality at 20 mg/m2 [8] | mortality at 500 g/ha (Myzus persicae [9]) | also measured
CCOCN(C(=O)c1cc(Cl)cc(C(F)(F)F)c1)C(C)c1ncnn1-c1ncccn1 (stereo not drawn) [Example I-013, 3-Chloro-N-(ethoxymethyl)-N-{1-[1-(pyrimidin-2-yl)-1H-1,2,4-triazol-5-yl]ethyl}-5-(trifluoromethyl)benzamide] | 100% | 100% | 100% | 100% | 100% | 100% | 100% | 80% | 100% | 100% | 100% |  |  |  |  |  |  |  |  | 
CSCCN(C(=O)c1cc(Cl)cc(C(F)(F)F)c1)C(C)c1ncnn1-c1ncccn1 (stereo not drawn) [Example I-017] | 100% | 100% | 100% | 80% | 100% | 100% | 100% |  | 100% | 100% | 100% | 90 to 100% | 80 to 100% | 90 to 100% | 90 to 100% | 90 to 100% | 100% | 85 to 100% |  | mortality at 4 mg/m2 [5]: 85 to 100%; mortality at 4 mg/m2 [8]: 85 to 100%
CON(C(=O)c1cc(Cl)cc(C(F)(F)F)c1)C(C)c1ncnn1-c1ncccn1 (stereo not drawn) [Example I-026] | 100% | 100% | 100% |  |  |  | 100% | 90% |  | 100% | 100% |  |  |  |  |  | 100% |  |  | 
CCON(C(=O)c1cc(Cl)cc(C(F)(F)F)c1)C(C)c1ncnn1-c1ncccn1 (stereo not drawn) [Example I-027] | 100% | 100% | 100% | 100% |  | 100% | 100% | 80% |  |  | 100% |  |  |  |  |  | 100% | 85 to 100% |  | mortality at 4 mg/m2 [8]: 85 to 100%
CON(C(=O)c1cccc(C(F)(F)F)c1)C(C)c1ncnn1-c1ncccn1 (stereo not drawn) [Example I-028] |  |  |  | 80% | 100% |  |  |  | 100% |  | 100% |  |  |  |  |  | 100% |  |  | 
CC(c1ncnn1-c1ncccn1)N(Cc1ccc(Cl)nc1)C(=O)c1cc(Cl)cc(C(F)(F)F)c1 (stereo not drawn) [Example I-030] |  | 100% |  |  |  | 90% | 100% |  | 100% | 100% | 100% | 90 to 100% | 80 to 100% | 90 to 100% | 90 to 100% | 90 to 100% | 100% | 85 to 100% | 100% | 
CSCCN(C(=O)c1cc(Cl)cc(C(F)(F)F)c1)C(C)c1ncnn1-c1ccc(C#N)cn1 (stereo not drawn) [Example I-033] |  | 100% |  |  |  | 100% |  |  |  | 100% |  | 90 to 100% | 80 to 100% | 90 to 100% | 90 to 100% | 90 to 100% | 100% | 85 to 100% | 90% | 
CSCCN(C(=O)c1cc(C(F)(F)F)cc(C(F)(F)F)c1)C(C)c1ncnn1-c1ccc(C#N)cn1 (stereo not drawn) [Example I-034] |  | 100% |  |  |  | 100% |  |  |  | 100% |  | 90 to 100% |  | 90 to 100% | 90 to 100% | 90 to 100% | 100% | 85 to 100% | 100% | mortality at 4 mg/m2 [5]: 85 to 100%
